Measurements as given in ChEMBL document CHEMBL5357057, “Pleosmaranes A-R, Isopimarane and 20-nor Isopimarane Diterpenoids with Anti-inflammatory Activities from the Mangrove Endophytic Fungus Pleosporales sp. HNQQJ-1” (J Nat Prod, 2024).

What was measured:
[1] = system: RAW264.7; test: Cytotoxicity against mouse RAW264.7 cells assessed as reduction in cell viability at 5 to 50 uM measured for 24 hrs by MTT assay; format: toxicity, cell-based; conditions: raw264.7, 24 h, dose 5-50 µM
[2] = system: RAW264.7; test: Anti-inflammatory activity in mouse RAW264.7 cells assessed as inhibition of LPS-induced NO production incubated for 24 hrs by Griess reagent based analysis; format: functional, cell-based; conditions: RAW264.7, 24 h

## C=C[C@@]1(C)CCc2c(c(O)cc3c2CCCC3(C)C)C1
[1]
  Activity: Non-Toxic
[2]
  IC50: > 50 µM

## C=C[C@]1(C)C=C2C(=O)C[C@H]3C(C)(C)CC[C@@H](OC(C)=O)[C@]3(C)[C@@]2(O)CC1
[1]
  Activity: Non-Toxic
[2]
  IC50: 33 µM

## C=C[C@@]1(C)CCc2c3c(cc(O)c2[C@@H]1OC)C(C)(C)CCC3
[1]
  Activity: Non-Toxic
[2]
  IC50: 30 µM

## C=C[C@@]1(C)CCC2=C([C@H]3O[C@@H](OC)[C@@]24CCCC(C)(C)[C@@H]4[C@H]3OC(C)=O)[C@H]1O
[1]
  Activity: Non-Toxic
[2]
  IC50: 37 µM

## C=C[C@@]1(C)CCc2c3c(cc(O)c2[C@@H]1OC)C(C)(C)[C@@H](O)CC3
[1]
  Activity: Non-Toxic
[2]
  IC50: 35 µM

## C=C[C@@]1(C)CCc2c3c(cc(O)c2[C@@H]1O)[C@@](C)(CO)CCC3
[1]
  Activity: Non-Toxic
[2]
  IC50: > 50 µM

## C=C[C@]1(C)C=C2[C@@H](O)C[C@H]3C(C)(C)CC[C@@H](OC(C)=O)[C@]3(C)[C@@]2(O)CC1
[1]
  Activity: Non-Toxic
[2]
  IC50: 25 µM

## C=C[C@]1(C)C=C2[C@@H](O)[C@H](O)[C@H]3C(C)(C)CC[C@@H](OC(C)=O)[C@]3(C)[C@@]2(O)CC1
[1]
  Activity: Non-Toxic
[2]
  IC50: 35 µM

## C=C[C@@]1(C)CCc2c3c(cc(O)c2[C@H]1O)[C@](C)(CO)CCC3
[1]
  Activity: Non-Toxic
[2]
  IC50: > 50 µM

## C=C[C@]1(C)C=C2[C@H]3O[C@@H](O)[C@@]4(CCCC(C)(C)[C@@H]4[C@H]3OC(C)=O)[C@@]2(O)CC1
[1]
  Activity: Non-Toxic
[2]
  IC50: 33 µM

## C=C[C@@]1(C)CCc2c3c(cc(O)c2[C@H]1OC)C(C)(C)CCC3
[1]
  Activity: Non-Toxic
[2]
  IC50: 37 µM

## C=C[C@@]1(C)CCC2=C(C1)C(=O)C[C@H]1C(C)(C)[C@H](O)C[C@@H](O)[C@]21C
[1]
  Activity: Non-Toxic
[2]
  IC50: > 50 µM

## C=C[C@]1(C)C=C2[C@@H](OC(C)=O)[C@H]3OC(=O)[C@@]4(CCCC(C)(C)[C@H]34)[C@@]2(O)CC1
[1]
  Activity: Non-Toxic
[2]
  IC50: 35 µM

## C=C[C@@]1(C)C[C@H](O)c2c3c(cc(O)c2[C@H]1OC)C(C)(C)CCC3
[1]
  Activity: Non-Toxic
[2]
  IC50: 38 µM

## C=C[C@@]1(C)CC[C@@]2(O)C(=C[C@H](O)[C@H]3C(C)(C)CC[C@@H](OC(C)=O)[C@@]32C)[C@H]1O
[1]
  Activity: Non-Toxic
[2]
  IC50: > 50 µM

## C=C[C@@]1(C)CCc2c3c(cc(O)c2[C@H]1O)C(C)(C)CCC3
[1]
  Activity: Non-Toxic
[2]
  IC50: > 50 µM

## C=C[C@]1(C)C=C2[C@](O)(CC1)[C@@]13CCCC(C)(C)[C@@H]1[C@@H](OC(C)=O)[C@]2(O)OC3
[1]
  Activity: Non-Toxic
[2]
  IC50: 30 µM

## C=C[C@@]1(C)CCc2c3c(cc(O)c2C1=O)[C@](C)(CO)CCC3
[1]
  Activity: Non-Toxic
[2]
  IC50: 19 µM

## C=C[C@@]1(C)CCc2c3c(cc(O)c2[C@H]1OC)[C@](C)(CO)CCC3
[1]
  Activity: Non-Toxic
[2]
  IC50: 42 µM

## C=C[C@@]1(C)CCc2c3c(cc(O)c2[C@@H]1OC)[C@@](C)(CO)CCC3
[1]
  Activity: Non-Toxic
[2]
  IC50: 42 µM

## C=C[C@@]1(C)CCc2c3c(cc(O)c2[C@@H]1O)C(C)(C)CCC3
[1]
  Activity: Non-Toxic
[2]
  IC50: 40 µM

## C=C[C@]1(C)C=C2C(=O)C[C@H]3C(C)(C)CCC[C@]3(C(=O)O)[C@@]2(O)CC1 [SPHAEROPSIDIN C]
[1]
  Activity: Non-Toxic
[2]
  IC50: 31 µM
